Reference: patent US6809065B2, “Herbicide containing substituted pyrazole derivative as active ingredient” (SDS Biotech K.K., priority 2001, dated 2004)

Experiments:
Chenopodium album [1] = test: Upland field foliage treatment (Test Example 1); assay type: in vivo; conditions: foliage treatment 14th day after sowing, wettable powder, 1 kg active ingredient per hectare, evaluated 21st day after application
Excerpt: (§1) In the above evaluation criteria, the term “herbicidal effect” means evaluation to the objective weeds, and a higher index of the evaluation criteria means higher herbicidal effect on the objective weeds. On the other hand, a lower index of the evaluation criteria for the crops means higher safety to the crops. A plastic pot of 130 cm^2 was filled with upland soil. Then, seeds of weeds, namely, Setaria viridis, Digitaria adscendens, Chenopodium album and Stellaria media, and seeds of crops, namely, soybean (Glycine max) and wheat (Triticum aestivum), were sowed and covered with soil of about 1 cm thick. On the 14th day after the sowing, a wettable powder composition was prepared in accordance with Formulation Example 1, diluted with water in such an amount that the amount of the active ingredient became 1 kg per hectare, and then uniformly applied to the plant leaf surfaces. On the 21st day after the application, observation and evaluation were carried out according to the aforesaid criteria.

Digitaria adscendens [2] = test: Upland field foliage treatment (Test Example 1); assay type: in vivo; conditions: foliage treatment 14th day after sowing, wettable powder, 1 kg active ingredient per hectare, evaluated 21st day after application
Excerpt: as §1

Setaria viridis [3] = test: Upland field foliage treatment (Test Example 1); assay type: in vivo; conditions: foliage treatment 14th day after sowing, wettable powder, 1 kg active ingredient per hectare, evaluated 21st day after application
Excerpt: as §1

Stellaria media [4] = test: Upland field foliage treatment (Test Example 1); assay type: in vivo; conditions: foliage treatment 14th day after sowing, wettable powder, 1 kg active ingredient per hectare, evaluated 21st day after application
Excerpt: as §1

soybean (Glycine max) [5] = test: Upland field foliage treatment (Test Example 1), crop; assay type: in vivo; conditions: foliage treatment 14th day after sowing, 1 kg active ingredient per hectare, evaluated 21st day, lower index = higher safety
Excerpt: as §1

[6] = system: wheat (Triticum aestivum); test: as above; assay type: in vivo; conditions: foliage treatment 14th day after sowing, 1 kg active ingredient per hectare, evaluated 21st day, lower index = higher safety
Excerpt: as §1

Chenopodium album [7] = test: Upland soil treatment (Test Example 2); assay type: in vivo; conditions: soil surface treatment next day after sowing, wettable powder, 1 kg active ingredient per hectare, evaluated 21st day after application
Excerpt: (§2) In the above evaluation criteria, the term “herbicidal effect” means evaluation to the objective weeds, and a higher index of the evaluation criteria means higher herbicidal effect on the objective weeds. On the other hand, a lower index of the evaluation criteria for the crops means higher safety to the crops. A plastic pot of 130 cm^2 was filled with upland soil. Then, seeds of weeds, namely, Setaria viridis, Digitaria adscendens, Chenopodium album and Stellaria media, and seeds of crops, namely, soybean (Glycine max) and wheat (Triticum aestivum), were sowed and covered with soil of about 1 cm thick. On the next day after the sowing, a wettable powder composition was prepared in accordance with Formulation Example 1, diluted with water in such an amount that the amount of the active ingredient became 1 kg per hectare, and then uniformly applied to the soil surface. On the 21st day after the application, observation and evaluation were carried out according to the aforesaid criteria.

Digitaria adscendens [8] = test: Upland soil treatment (Test Example 2); assay type: in vivo; conditions: soil surface treatment next day after sowing, wettable powder, 1 kg active ingredient per hectare, evaluated 21st day after application
Excerpt: as §2

Setaria viridis [9] = test: Upland soil treatment (Test Example 2); assay type: in vivo; conditions: soil surface treatment next day after sowing, wettable powder, 1 kg active ingredient per hectare, evaluated 21st day after application
Excerpt: as §2

Stellaria media [10] = test: Upland soil treatment (Test Example 2); assay type: in vivo; conditions: soil surface treatment next day after sowing, wettable powder, 1 kg active ingredient per hectare, evaluated 21st day after application
Excerpt: as §2

soybean (Glycine max) [11] = test: Upland soil treatment (Test Example 2), crop; assay type: in vivo; conditions: soil surface treatment next day after sowing, 1 kg active ingredient per hectare, evaluated 21st day, lower index = higher safety
Excerpt: as §2

[12] = system: wheat (Triticum aestivum); test: Upland soil treatment (Test Example 2), crop; assay type: in vivo; conditions: soil surface treatment next day after sowing, 1 kg active ingredient per hectare, evaluated 21st day, lower index = higher safety
Excerpt: as §2

Echinochloa spp. = test: Paddy field treatment (Test Example 3); assay type: in vivo, Echinochloa crusgalli; conditions: paddy pot, submerged 4 cm, dropped on water surface 10th day after transplantation, 1 kg active ingredient per hectare, evaluated 21st day
Experimental: (§3) In the above evaluation criteria, the term “herbicidal effect” means evaluation to the objective weeds, and a higher index of the evaluation criteria means higher herbicidal effect on the objective weeds. On the other hand, a lower index of the evaluation criteria for the crops means higher safety to the crops. A plastic pot of 130 cm^2 was filled with paddy soil, and soil puddling was carried out to adjust the submerged depth to 4 cm. Then, seeds of Echinochloa crusgalli, Monochoria vaginalis, Ammannia multiflora and Scirpus juncoides were sowed, and rice (Oryza […], variety: Koshihikari) of two-leaf period was transplanted by 2 rice plants of 1 stub per pot at a depth of 3 cm. On the 10th day after the transplantation, a wettable powder composition was prepared in accordance with Formulation Example 1, diluted with water in such an amount that the amount of the active ingredient became 1 kg per hectare, and then dropped to diffuse on the water surface. On the 21st day after the dropping, observation and evaluation were carried out according to the aforesaid criteria.

Ammannia multiflora = test: Paddy field treatment (Test Example 3); assay type: in vivo; conditions: paddy pot, submerged 4 cm, dropped on water surface 10th day after transplantation, 1 kg active ingredient per hectare, evaluated 21st day
Experimental: as §3

Monochoria vaginalis = test: Paddy field treatment (Test Example 3); assay type: in vivo; conditions: paddy pot, submerged 4 cm, dropped on water surface 10th day after transplantation, 1 kg active ingredient per hectare, evaluated 21st day
Experimental: as §3

Scirpus juncoides = test: Paddy field treatment (Test Example 3); assay type: in vivo; conditions: paddy pot, submerged 4 cm, dropped on water surface 10th day after transplantation, 1 kg active ingredient per hectare, evaluated 21st day
Experimental: as §3

[13] = system: rice (Oryza sative, variety: Koshihikari); test: Paddy field treatment (Test Example 3), crop; assay type: in vivo, Oryza sativa; conditions: transplanted rice two-leaf period, water surface treatment 10th day after transplantation, 1 kg active ingredient per hectare, evaluated 21st day, lower index = higher safety
Experimental: as §3

SMILES | Herbicidal activity Chenopodium album (Chenopodium album [1]) | Herbicidal activity Digitaria adscendens (Digitaria adscendens [2]) | Herbicidal activity Setaria viridis (Setaria viridis [3]) | Herbicidal activity Stellaria media (Stellaria media [4]) | Herbicidal activity Glycine max (soybean (Glycine max) [5]) | Herbicidal activity Triticum aestivum [6] | Herbicidal activity Chenopodium album (Chenopodium album [7]) | Herbicidal activity Digitaria adscendens (Digitaria adscendens [8]) | Herbicidal activity Setaria viridis (Setaria viridis [9]) | Herbicidal activity Stellaria media (Stellaria media [10]) | Herbicidal activity Glycine max (soybean (Glycine max) [11]) | Herbicidal activity Triticum aestivum [12] | Herbicidal activity Echinochloa spp. (Echinochloa spp.) | Herbicidal activity Ammannia multiflora (Ammannia multiflora) | Herbicidal activity Monochoria vaginalis (Monochoria vaginalis) | Herbicidal activity Scirpus juncoides (Scirpus juncoides) | Herbicidal activity Oryza sativa [13]
COC=C(Cn1nc(-c2c(Cl)cccc2Cl)cc1C)C(=O)OC [Compound 9] | 4 (herbicidal effect of not less than 70% by weight and less than 90% by weight) | 4 (herbicidal effect of not less than 70% by weight and less than 90% by weight) | 4 (herbicidal effect of not less than 70% by weight and less than 90% by weight) | 4 (herbicidal effect of not less than 70% by weight and less than 90% by weight) | 0 (herbicidal effect of not less than 0% by weight and less than 10% by weight) | 0 (herbicidal effect of not less than 0% by weight and less than 10% by weight) | 5 (herbicidal effect of not less than 90% by weight) | 4 (herbicidal effect of not less than 70% by weight and less than 90% by weight) | 4 (herbicidal effect of not less than 70% by weight and less than 90% by weight) | 4 (herbicidal effect of not less than 70% by weight and less than 90% by weight) | 0 (herbicidal effect of not less than 0% by weight and less than 10% by weight) | 0 (herbicidal effect of not less than 0% by weight and less than 10% by weight) | 3 (herbicidal effect of not less than 50% by weight and less than 70% by weight) | 3 (herbicidal effect of not less than 50% by weight and less than 70% by weight) | 3 (herbicidal effect of not less than 50% by weight and less than 70% by weight) | 3 (herbicidal effect of not less than 50% by weight and less than 70% by weight) | 0 (herbicidal effect of not less than 0% by weight and less than 10% by weight)
COC=C(Cn1nc(-c2ccccc2)c(C)c1Br)C(=O)OC [Compound 46] | 5 (herbicidal effect of not less than 90% by weight) | 4 (herbicidal effect of not less than 70% by weight and less than 90% by weight) | 4 (herbicidal effect of not less than 70% by weight and less than 90% by weight) | 5 (herbicidal effect of not less than 90% by weight) | 1 (herbicidal effect of not less than 10% by weight and less than 30% by weight) | 0 (herbicidal effect of not less than 0% by weight and less than 10% by weight) | 4 (herbicidal effect of not less than 70% by weight and less than 90% by weight) | 4 (herbicidal effect of not less than 70% by weight and less than 90% by weight) | 4 (herbicidal effect of not less than 70% by weight and less than 90% by weight) | 4 (herbicidal effect of not less than 70% by weight and less than 90% by weight) | 0 (herbicidal effect of not less than 0% by weight and less than 10% by weight) | 0 (herbicidal effect of not less than 0% by weight and less than 10% by weight) | 3 (herbicidal effect of not less than 50% by weight and less than 70% by weight) | 3 (herbicidal effect of not less than 50% by weight and less than 70% by weight) | 3 (herbicidal effect of not less than 50% by weight and less than 70% by weight) | 3 (herbicidal effect of not less than 50% by weight and less than 70% by weight) | 0 (herbicidal effect of not less than 0% by weight and less than 10% by weight)
COC=C(Cn1nc(-c2ccccc2Cl)c(Cl)c1C)C(=O)OC [Compound 18] | 5 (herbicidal effect of not less than 90% by weight) | 5 (herbicidal effect of not less than 90% by weight) | 4 (herbicidal effect of not less than 70% by weight and less than 90% by weight) | 5 (herbicidal effect of not less than 90% by weight) | 0 (herbicidal effect of not less than 0% by weight and less than 10% by weight) | 0 (herbicidal effect of not less than 0% by weight and less than 10% by weight) | 5 (herbicidal effect of not less than 90% by weight) | 5 (herbicidal effect of not less than 90% by weight) | 4 (herbicidal effect of not less than 70% by weight and less than 90% by weight) | 5 (herbicidal effect of not less than 90% by weight) | 0 (herbicidal effect of not less than 0% by weight and less than 10% by weight) | 0 (herbicidal effect of not less than 0% by weight and less than 10% by weight) | 5 (herbicidal effect of not less than 90% by weight) | 5 (herbicidal effect of not less than 90% by weight) | 5 (herbicidal effect of not less than 90% by weight) | 5 (herbicidal effect of not less than 90% by weight) | 1 (herbicidal effect of not less than 10% by weight and less than 30% by weight)
COC=C(Cn1cc(Cl)c(-c2cccc(OC)c2)n1)C(=O)OC [Compound 16] | 5 (herbicidal effect of not less than 90% by weight) | 5 (herbicidal effect of not less than 90% by weight) | 5 (herbicidal effect of not less than 90% by weight) | 5 (herbicidal effect of not less than 90% by weight) | 1 (herbicidal effect of not less than 10% by weight and less than 30% by weight) | 0 (herbicidal effect of not less than 0% by weight and less than 10% by weight) | 4 (herbicidal effect of not less than 70% by weight and less than 90% by weight) | 5 (herbicidal effect of not less than 90% by weight) | 5 (herbicidal effect of not less than 90% by weight) | 5 (herbicidal effect of not less than 90% by weight) | 0 (herbicidal effect of not less than 0% by weight and less than 10% by weight) | 0 (herbicidal effect of not less than 0% by weight and less than 10% by weight) | 5 (herbicidal effect of not less than 90% by weight) | 5 (herbicidal effect of not less than 90% by weight) | 5 (herbicidal effect of not less than 90% by weight) | 5 (herbicidal effect of not less than 90% by weight) | 0 (herbicidal effect of not less than 0% by weight and less than 10% by weight)
